From the Kinase Knowledgebase extract (Sharma et al. 2016)

What was measured:
PIK3CD (Human) = PIK3CD (Human) (UniProt O00329); experiment: Assessment of PI3KCD Kinase Activity
PIK3CA (human) = PIK3CA (human) (UniProt P42336); experiment: Assessment of PI3KCA Kinase Activity
PIK3CB (Human) = PIK3CB (Human) (UniProt P42338); experiment: Assessment of PI3KCB Kinase Activity
PIK3CG (human) = PIK3CG (human) (UniProt P48736); experiment: Assessment of PI3KCG Kinase Activity
Chain of PIK3CG (human) (P48736 whole entry, looked up): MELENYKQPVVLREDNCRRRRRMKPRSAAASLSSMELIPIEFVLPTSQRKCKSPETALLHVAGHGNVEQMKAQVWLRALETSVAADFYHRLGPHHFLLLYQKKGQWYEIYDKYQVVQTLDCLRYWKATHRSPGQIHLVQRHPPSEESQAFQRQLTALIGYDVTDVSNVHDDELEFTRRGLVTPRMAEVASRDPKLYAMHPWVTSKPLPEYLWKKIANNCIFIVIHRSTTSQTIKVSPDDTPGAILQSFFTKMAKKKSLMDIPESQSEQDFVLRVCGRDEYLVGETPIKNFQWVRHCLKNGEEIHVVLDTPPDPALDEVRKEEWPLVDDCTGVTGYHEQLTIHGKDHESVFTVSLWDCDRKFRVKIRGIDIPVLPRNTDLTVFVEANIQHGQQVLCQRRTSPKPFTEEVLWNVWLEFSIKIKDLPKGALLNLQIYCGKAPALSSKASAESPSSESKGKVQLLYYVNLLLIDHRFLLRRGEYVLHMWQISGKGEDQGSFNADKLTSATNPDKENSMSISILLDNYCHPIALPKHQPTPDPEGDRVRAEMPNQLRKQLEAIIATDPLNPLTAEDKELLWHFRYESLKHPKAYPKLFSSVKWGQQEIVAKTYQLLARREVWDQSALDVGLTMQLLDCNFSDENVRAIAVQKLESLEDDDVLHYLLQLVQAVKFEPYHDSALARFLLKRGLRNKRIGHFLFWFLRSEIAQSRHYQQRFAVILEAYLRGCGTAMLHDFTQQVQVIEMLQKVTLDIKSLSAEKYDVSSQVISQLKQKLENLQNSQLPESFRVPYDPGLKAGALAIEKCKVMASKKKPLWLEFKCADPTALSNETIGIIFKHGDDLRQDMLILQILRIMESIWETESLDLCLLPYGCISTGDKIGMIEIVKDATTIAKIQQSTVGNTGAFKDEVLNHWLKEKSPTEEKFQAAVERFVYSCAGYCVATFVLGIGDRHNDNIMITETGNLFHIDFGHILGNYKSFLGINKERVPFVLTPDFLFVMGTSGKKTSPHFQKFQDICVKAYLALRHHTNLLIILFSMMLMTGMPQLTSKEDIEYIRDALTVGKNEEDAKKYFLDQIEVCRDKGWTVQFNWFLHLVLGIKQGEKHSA

Chain of PIK3CD (Human) (O00329 whole entry, looked up): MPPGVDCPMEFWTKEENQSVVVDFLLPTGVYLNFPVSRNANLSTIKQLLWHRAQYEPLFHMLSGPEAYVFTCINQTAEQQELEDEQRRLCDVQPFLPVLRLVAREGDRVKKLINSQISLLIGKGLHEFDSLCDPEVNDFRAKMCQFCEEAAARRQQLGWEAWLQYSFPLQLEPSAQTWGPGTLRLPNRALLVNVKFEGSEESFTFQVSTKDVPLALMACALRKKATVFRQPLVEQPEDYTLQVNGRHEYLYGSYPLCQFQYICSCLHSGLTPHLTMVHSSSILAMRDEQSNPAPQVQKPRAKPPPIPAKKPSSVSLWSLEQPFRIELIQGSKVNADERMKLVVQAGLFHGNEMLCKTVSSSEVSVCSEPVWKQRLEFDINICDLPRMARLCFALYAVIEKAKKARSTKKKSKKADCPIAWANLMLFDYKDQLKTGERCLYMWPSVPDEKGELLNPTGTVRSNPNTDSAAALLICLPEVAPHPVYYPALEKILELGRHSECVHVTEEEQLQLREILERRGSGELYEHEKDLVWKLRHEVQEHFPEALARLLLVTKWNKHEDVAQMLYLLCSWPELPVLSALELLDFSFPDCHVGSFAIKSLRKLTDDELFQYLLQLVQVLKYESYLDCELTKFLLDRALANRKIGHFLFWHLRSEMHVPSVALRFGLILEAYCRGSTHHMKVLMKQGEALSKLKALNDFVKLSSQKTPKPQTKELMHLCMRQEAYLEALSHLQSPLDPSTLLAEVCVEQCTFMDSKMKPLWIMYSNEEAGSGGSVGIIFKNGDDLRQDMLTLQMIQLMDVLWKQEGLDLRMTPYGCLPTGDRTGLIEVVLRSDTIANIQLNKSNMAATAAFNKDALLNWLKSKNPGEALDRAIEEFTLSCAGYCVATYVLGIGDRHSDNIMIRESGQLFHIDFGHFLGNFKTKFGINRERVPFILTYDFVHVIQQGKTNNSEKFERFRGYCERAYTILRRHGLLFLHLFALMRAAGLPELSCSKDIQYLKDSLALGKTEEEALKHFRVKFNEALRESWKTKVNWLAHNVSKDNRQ
Chain of PIK3CB (Human) (P42338 whole entry, looked up): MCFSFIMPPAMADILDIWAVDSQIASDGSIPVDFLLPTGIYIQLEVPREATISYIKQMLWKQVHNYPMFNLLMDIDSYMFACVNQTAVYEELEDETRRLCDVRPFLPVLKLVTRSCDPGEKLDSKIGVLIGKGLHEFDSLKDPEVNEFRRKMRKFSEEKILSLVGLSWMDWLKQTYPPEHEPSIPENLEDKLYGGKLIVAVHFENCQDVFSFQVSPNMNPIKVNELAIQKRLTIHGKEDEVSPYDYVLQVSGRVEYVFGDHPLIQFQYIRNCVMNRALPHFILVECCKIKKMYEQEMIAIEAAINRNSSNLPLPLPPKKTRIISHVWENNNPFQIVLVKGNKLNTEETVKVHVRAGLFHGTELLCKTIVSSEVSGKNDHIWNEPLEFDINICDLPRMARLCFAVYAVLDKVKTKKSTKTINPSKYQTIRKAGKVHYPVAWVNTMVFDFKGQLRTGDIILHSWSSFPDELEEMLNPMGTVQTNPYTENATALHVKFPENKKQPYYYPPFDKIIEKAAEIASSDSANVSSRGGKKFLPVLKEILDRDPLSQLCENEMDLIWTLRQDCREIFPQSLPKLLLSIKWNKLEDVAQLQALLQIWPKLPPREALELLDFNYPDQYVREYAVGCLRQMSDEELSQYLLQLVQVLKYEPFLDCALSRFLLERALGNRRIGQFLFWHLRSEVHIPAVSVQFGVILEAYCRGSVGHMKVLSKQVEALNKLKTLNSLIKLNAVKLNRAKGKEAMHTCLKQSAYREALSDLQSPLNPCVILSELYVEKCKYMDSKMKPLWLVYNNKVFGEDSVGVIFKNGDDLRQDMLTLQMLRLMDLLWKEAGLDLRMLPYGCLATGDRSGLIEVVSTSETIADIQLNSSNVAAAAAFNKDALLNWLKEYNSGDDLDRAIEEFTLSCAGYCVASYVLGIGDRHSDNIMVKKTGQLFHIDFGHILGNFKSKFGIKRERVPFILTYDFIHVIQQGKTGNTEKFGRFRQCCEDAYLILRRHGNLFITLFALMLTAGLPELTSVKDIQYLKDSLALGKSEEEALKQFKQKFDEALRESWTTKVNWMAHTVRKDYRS
Chain of PIK3CA (human) (P42336 whole entry, looked up): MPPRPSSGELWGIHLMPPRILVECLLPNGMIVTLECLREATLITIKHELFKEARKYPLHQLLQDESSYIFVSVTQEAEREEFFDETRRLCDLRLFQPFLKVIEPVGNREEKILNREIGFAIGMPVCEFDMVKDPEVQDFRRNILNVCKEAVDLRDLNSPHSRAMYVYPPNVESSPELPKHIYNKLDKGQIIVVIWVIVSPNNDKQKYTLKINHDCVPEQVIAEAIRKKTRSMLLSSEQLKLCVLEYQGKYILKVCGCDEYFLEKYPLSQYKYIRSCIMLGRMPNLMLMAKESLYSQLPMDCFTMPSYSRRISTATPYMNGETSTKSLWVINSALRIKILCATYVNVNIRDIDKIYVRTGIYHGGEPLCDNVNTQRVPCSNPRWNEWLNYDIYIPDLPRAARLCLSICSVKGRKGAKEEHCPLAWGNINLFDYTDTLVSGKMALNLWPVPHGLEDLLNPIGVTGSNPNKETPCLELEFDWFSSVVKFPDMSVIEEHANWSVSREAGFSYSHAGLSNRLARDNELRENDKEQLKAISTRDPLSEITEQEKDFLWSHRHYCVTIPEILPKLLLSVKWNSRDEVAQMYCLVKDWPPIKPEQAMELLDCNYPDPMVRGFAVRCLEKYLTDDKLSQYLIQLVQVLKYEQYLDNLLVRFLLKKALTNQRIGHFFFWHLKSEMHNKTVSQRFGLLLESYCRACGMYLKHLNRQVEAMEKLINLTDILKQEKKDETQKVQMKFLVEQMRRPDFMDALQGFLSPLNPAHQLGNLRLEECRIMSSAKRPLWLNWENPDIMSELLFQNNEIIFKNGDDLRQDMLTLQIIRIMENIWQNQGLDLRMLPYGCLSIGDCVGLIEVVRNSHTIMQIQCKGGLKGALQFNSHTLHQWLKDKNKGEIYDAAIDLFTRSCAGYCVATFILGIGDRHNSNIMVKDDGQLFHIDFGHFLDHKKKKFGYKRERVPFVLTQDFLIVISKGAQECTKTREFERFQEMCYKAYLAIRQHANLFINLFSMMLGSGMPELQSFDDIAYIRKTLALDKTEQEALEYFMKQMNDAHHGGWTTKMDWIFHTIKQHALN

SMILES | IC50 (PIK3CD (Human)) | IC50 (PIK3CA (human)) | IC50 (PIK3CB (Human)) | IC50 (PIK3CG (human))
CC(=O)Nc1nc2ccc(-c3nn(Cc4cc5cccc(Cl)c5c(=O)n4C4CC4)c4ncnc(N)c34)cc2s1 | < 100 nM | < 100 nM | < 100 nM | 
CC(=O)Nc1nc2ccc(-c3nn(Cc4cc5cccc(Cl)c5c(=O)n4C(C)C)c4ncnc(N)c34)cc2s1 | < 100 nM | < 100 nM | < 100 nM | 
Cc1cccc2cc(Cn3nc(-c4cc(O)cc(F)c4)c4c(N)ncnc43)n(C3CC3)c(=O)c12 | < 100 nM |  | < 100 nM | < 100 nM
CC(=O)Nc1nc2ccc(-c3nn(Cc4cc5cccc(C)c5c(=O)n4C4CCC4)c4ncnc(N)c34)cc2s1 | < 100 nM | < 100 nM |  | 
CC(=O)Nc1nc2ccc(-c3nn(Cc4cc5cccc(C)c5c(=O)n4C4CC4)c4ncnc(N)c34)cc2s1 | < 100 nM | < 100 nM | < 100 nM | 
CC(=O)Nc1nc2ccc(-c3nn(Cc4cc5cccc(C)c5c(=O)n4C(C)C)c4ncnc(N)c34)cc2s1 | < 100 nM | < 100 nM |  | 
CC(=O)Nc1nc2ccc(-c3nn(Cc4cc5cccc(F)c5c(=O)n4C(C)C)c4ncnc(N)c34)cc2s1 | < 100 nM | < 100 nM |  | 
CNC(=O)Nc1nc2ccc(-c3nn(Cc4cc5cccc(C)c5c(=O)n4-c4ccccc4C)c4ncnc(N)c34)cc2s1 | < 100 nM | < 100 nM |  | < 100 nM
Nc1ncnc2c1c(-c1cc(O)cc(F)c1)nn2Cc1cc2cccc(Cl)c2c(=O)n1C1CC1 | < 100 nM | < 100 nM | < 100 nM | < 100 nM
Cc1ccccc1-n1c(Cn2nc(-c3ccc4cc[nH]c4c3)c3c(N)ncnc32)cc2cccc(C)c2c1=O | < 100 nM |  |  | < 100 nM
Cc1ccccc1-n1c(Cn2nc(-c3ccc4ncnc(N)c4c3)c3c(N)ncnc32)cc2cccc(C)c2c1=O | < 100 nM |  |  | < 100 nM
CCc1ccccc1-n1c(Cn2nc(-c3cc(O)cc(F)c3)c3c(N)ncnc32)nc2scc(C)c2c1=O | < 100 nM |  |  | < 100 nM
Cc1ccccc1-n1c(Cn2nc(-c3ccc4nc(N)ncc4c3)c3c(N)ncnc32)cc2cccc(C)c2c1=O | < 100 nM | < 100 nM |  | < 100 nM
CC(=O)Nc1nc2ccc(-c3nn(Cc4cc5cccc(C)c5c(=O)n4C)c4ncnc(N)c34)cc2s1 | < 100 nM | < 100 nM |  | 
Cc1ccccc1-n1c(Cn2nc(-c3ccc(F)c(O)c3)c3c(N)ncnc32)cc2ccccc2c1=O | < 100 nM |  |  | < 100 nM
Cc1ccccc1-n1c(Cn2nc(-c3cccc(O)c3)c3c(N)ncnc32)cc2cccc(C)c2c1=O | < 100 nM |  |  | < 100 nM

SMILES | IC50 (PIK3CD (Human)) | IC50 (PIK3CA (human)) | IC50 (PIK3CB (Human)) | IC50 (PIK3CG (human))
Cc1cccc2cc(Cn3nc(I)c4c(N)ncnc43)n(C3CC3)c(=O)c12 | < 100 nM |  |  | < 100 nM
Cc1cccc2cc(Cn3nc(C=C4SC(=O)NC4=O)c4c(N)ncnc43)n(-c3ccccc3F)c(=O)c12 | < 100 nM |  |  | < 100 nM
Cc1ccccc1-n1c(Cn2nc(-c3ccc(F)c(O)c3)c3c(N)ncnc32)cc2cccc(F)c2c1=O | < 100 nM |  |  | < 100 nM
COc1ccccc1-n1c(Cn2nc(-c3cc(O)cc(F)c3)c3c(N)ncnc32)cc2cccc(C)c2c1=O | < 100 nM |  |  | < 100 nM
Cc1cccc2cc(Cn3nc(-c4cccc(O)c4)c4c(N)ncnc43)n(C(C)C)c(=O)c12 | < 100 nM |  |  | < 100 nM
Cc1cccnc1-n1c(Cn2nc(-c3ccc(Cl)c(O)c3)c3c(N)ncnc32)cc2cccc(C)c2c1=O | < 100 nM |  |  | < 100 nM
Cc1cccc2cc(Cn3nc(-c4cccc(O)c4)c4c(N)ncnc43)n(C3CC3)c(=O)c12 | < 100 nM |  |  | < 100 nM
CCn1c(Cn2nc(-c3ccc4nc(NC(C)=O)sc4c3)c3c(N)ncnc32)cc2cccc(C)c2c1=O | < 100 nM | < 100 nM |  | < 100 nM
CCc1ccccc1-n1c(Cn2nc(I)c3c(N)ncnc32)cc2cccc(C)c2c1=O | < 100 nM |  |  | < 100 nM
Cc1ccccc1-n1c(Cn2nc(-c3ccc(O)c(Cl)c3)c3c(N)ncnc32)cc2cccc(C)c2c1=O | < 100 nM |  |  | < 100 nM
Cc1cccc2cc(Cn3nc(-c4cc(O)cc(F)c4)c4c(N)ncnc43)n(-c3ccccc3F)c(=O)c12 | < 100 nM |  |  | < 100 nM
Cc1ccccc1-n1c(Cn2nc(-c3cccc(O)c3)c3c(N)ncnc32)cc2nccc(C)c2c1=O | < 100 nM |  |  | < 100 nM
CC(=O)Nc1nc2ccc(-c3nn(Cc4cc5ccccc5c(=O)n4-c4ccccc4C)c4ncnc(N)c34)cc2s1 | < 100 nM |  |  | < 100 nM
COc1ccccc1-n1c(Cn2nc(-c3cc(O)cc(F)c3)c3c(N)ncnc32)nc2scc(C)c2c1=O | < 100 nM |  |  | < 100 nM
Cc1cccc2cc(Cn3nc(-c4cccc(O)c4)c4c(N)ncnc43)n(-c3ccccc3)c(=O)c12 | < 100 nM |  |  | < 100 nM
Cc1csc2nc(Cn3nc(-c4cccc(O)c4)c4c(N)ncnc43)n(-c3ccccc3C(C)C)c(=O)c12 | < 100 nM |  |  | < 100 nM
